Reference: paper PMC7587962, “Evaluation of Cytotoxicity and α-Glucosidase Inhibitory Activity of Amide and Polyamino-Derivatives of Lupane Triterpenoids” (Molecules, 2020)
Where two headings read alike, the source gives them in different places.

Columns and labels:
BT-549 = assay: NCI-60 SRB screen: breast cancer BT-549; assay type: cell-based, human; settings: BT-549
MOLT-4 = assay: NCI-60 SRB screen: leukemia MOLT-4; assay type: cell-based; settings: Homo sapiens, 48 h, MOLT-4
NCI-H460 = assay: NCI-60 SRB screen: non-small cell lung cancer NCI-H460; assay type: cell-based; settings: Homo sapiens, 48 h, NCI-H460
OVCAR-5 = assay: NCI-60 SRB screen: ovarian cancer OVCAR-5; assay type: cell-based, human; settings: OVCAR-5
MDA-MB-231/ATCC = assay: NCI-60 SRB screen: breast cancer MDA-MB-231/ATCC; assay type: cell-based; settings: Homo sapiens, 48 h
Melanoma subpanel = assay: NCI-60 screen, subpanel Melanoma
OVCAR-3 = assay: NCI-60 SRB screen: ovarian cancer OVCAR-3; assay type: cell-based, human; settings: OVCAR-3
UACC-257 = assay: NCI-60 SRB screen: melanoma UACC-257; assay type: cell-based, human; settings: UACC-257
HOP-92 = assay: NCI-60 SRB screen: non-small cell lung cancer HOP-92; assay type: cell-based, human; settings: HOP-92
Leukemia subpanel = assay: NCI-60 screen, subpanel Leukemia
T-47D = assay: NCI-60 SRB screen: breast cancer T-47D; assay type: cell-based, human; settings: T-47D
SK-OV-3 = assay: NCI-60 SRB screen: ovarian cancer SK-OV-3; assay type: cell-based, human; settings: SK-OV-3
COLO 205 = assay: NCI-60 SRB screen: colon cancer COLO 205; assay type: cell-based, human; settings: COLO 205
A498 = assay: NCI-60 SRB screen: renal cancer A498; assay type: cell-based, human; settings: A498
Renal Cancer subpanel = assay: NCI-60 screen, subpanel Renal Cancer
Prostate cancer subpanel = assay: NCI-60 screen, subpanel Prostate cancer
SF-539 = assay: NCI-60 SRB screen: CNS cancer SF-539; assay type: cell-based, human; settings: SF-539
HL-60(TB) = assay: NCI-60 SRB screen: leukemia HL-60(TB); assay type: cell-based; settings: Homo sapiens, 48 h, HL-60(TB)
PC-3 = assay: NCI-60 SRB screen: prostate cancer PC-3; assay type: cell-based, human; settings: PC-3
K-562 = assay: NCI-60 SRB screen: leukemia K-562; assay type: cell-based, human; settings: K-562
[1] = system: 60 human tumor cell lines; assay: cells
Colon Cancer subpanel = assay: NCI-60 screen, subpanel Colon Cancer
NCI-H23 = assay: NCI-60 SRB screen: non-small cell lung cancer NCI-H23; assay type: cell-based, human; settings: NCI-H23
ACHN = assay: NCI-60 SRB screen: renal cancer ACHN; assay type: cell-based, human
MALME-3M = assay: NCI-60 SRB screen: melanoma MALME-3M; assay type: cell-based, human; settings: MALME-3M
MDA-MB-435 = assay: NCI-60 SRB screen: melanoma MDA-MB-435; assay type: cell-based, human; settings: MDA-MB-435
CAKI-1 = assay: NCI-60 SRB screen: renal cancer CAKI-1; assay type: cell-based, human; settings: CAKI-1
Breast cancer subpanel = assay: NCI-60 screen, subpanel Breast cancer
NSCL cancer subpanel = assay: NCI-60 screen, subpanel NSCL cancer
NCI-H322M = assay: NCI-60 SRB screen: non-small cell lung cancer NCI-H322M; assay type: cell-based, human
NCI/ADR-RES = assay: NCI-60 SRB screen: ovarian cancer NCI/ADR-RES; assay type: cell-based, human
RXF 393 = assay: NCI-60 SRB screen: renal cancer RXF 393; assay type: cell-based, human; settings: RXF 393
HT29 = assay: NCI-60 SRB screen: colon cancer HT29; assay type: cell-based; settings: Homo sapiens, HT29
KM12 = assay: NCI-60 SRB screen: colon cancer KM12; assay type: cell-based, human; settings: KM12
EKVX = assay: NCI-60 SRB screen: non-small cell lung cancer EKVX; assay type: cell-based, human
786-0 = system: 786-0; parameters: method as in PMID 25405285; settings: standard drugs used by NCI as control; cited from earlier work
A549/ATCC = system: A549/ATCC; parameters: method as in PMID 25405285; settings: standard drugs used by NCI as control; cited from earlier work
[2] = Homo sapiens, five concentrations, 48 h, SRB, read-out: GI50
[3] = single dose 10 µM, read-out: Percentage Cell Growth
[4] = five concentrations, SRB, read-out: GI50

C=C(C)[C@@H]1CC[C@]2(C(=O)OC)CC[C@]3(C)[C@H](CC[C@@H]4[C@@]5(C)CCC(=NOCCC(=NOCCC#N)NCCC#N)C(C)(C)[C@@H]5CC[C@]43C)[C@@H]12 [Compound 21]
Percentage Cell Growth (BT-549; single dose 10 µM): 4.40% | GI50 (BT-549; [2]): 11.3 µM | activity at 10 µM (MOLT-4; [3]): -26.8% | GI50 (MOLT-4; [4]): 2.52 µM | activity at 10 µM (NCI-H460; [3]): 4.23% | GI50 (NCI-H460; [4]): 11.1 µM | GI50 (OVCAR-5; [2]): 16.7 µM | Percentage Cell Growth (OVCAR-5; single dose 10 µM): 50.59% | activity at 10 µM (MDA-MB-231/ATCC; MDA-MB-231/ATCC, single dose 10 µM, read-out: Percentage Cell Growth): 5.09% | GI50 (MDA-MB-231/ATCC; MDA-MB-231, MDA-MB-31/ATCC, five concentrations, SRB, read-out: GI50): 10.3 µM | MID b, average sensitivity of all cell line of particular subpanel (Melanoma subpanel): 8.81 µM | Selectivity, ratio MID a: MID b (Melanoma subpanel): 1.16 | GI50 (OVCAR-3; [2]): 5.17 µM | Percentage Cell Growth (OVCAR-3; single dose 10 µM): −34.55% | GI50 (UACC-257; [2]): 5.35 µM | Percentage Cell Growth (UACC-257; single dose 10 µM): 8.82% | Percentage Cell Growth (HOP-92; single dose 10 µM): −14.95% | GI50 (HOP-92; [2]): 6.9 µM | MID b, average sensitivity of all cell line of particular subpanel (Leukemia subpanel): 4.90 µM | Selectivity, ratio MID a: MID b (Leukemia subpanel): 2.09 | GI50 (T-47D; Homo sapiens, T47D, five concentrations, 48 h, SRB, read-out: GI50): 3.47 µM | Percentage Cell Growth (T-47D; single dose 10 µM): 15.11% | GI50 (SK-OV-3; [2]): 10.8 µM | Percentage Cell Growth (SK-OV-3; single dose 10 µM): 34.60% | Percentage Cell Growth (COLO 205; single dose 10 µM): 17.60% | GI50 (COLO 205; [2]): 9.02 µM | Percentage Cell Growth (A498; single dose 10 µM): −0.38% | GI50 (A498; [2]): 21.7 µM | MID b, average sensitivity of all cell line of particular subpanel (Renal Cancer subpanel): 11.39 µM | Selectivity, ratio MID a: MID b (Renal Cancer subpanel): 0.89 | MID b, average sensitivity of all cell line of particular subpanel (Prostate cancer subpanel): 7.83 µM | Selectivity, ratio MID a: MID b (Prostate cancer subpanel): 1.31 | GI50 (SF-539; [2]): 11 µM | Percentage Cell Growth (SF-539; single dose 10 µM): −2.29% | activity at 10 µM (HL-60(TB); [3]): 0.9% | GI50 (HL-60(TB); [4]): 5.18 µM | GI50 (PC-3; [2]): 2.26 µM | Percentage Cell Growth (PC-3; single dose 10 µM): 4.49% | GI50 (K-562; Homo sapiens, K562, five concentrations, 48 h, SRB, read-out: GI50): 2.23 µM | Percentage Cell Growth (K-562; single dose 10 µM): 5.42% | GI50 ([1]; read-out: GI50 ranges against all panels of NCI60): 2.02 to 50 µM | GI50 ([1]; read-out: MID a, average sensitivity of all cell line (GI50-MID)): 10.2 µM | MID b, average sensitivity of all cell line of particular subpanel (Colon Cancer subpanel): 7.42 µM | Selectivity, ratio MID a: MID b (Colon Cancer subpanel): 1.38 | GI50 (NCI-H23; [2]): 7.59 µM | Percentage Cell Growth (NCI-H23; single dose 10 µM): 21.79% | GI50 (ACHN; [2]): 10.5 µM | Percentage Cell Growth (ACHN; single dose 10 µM): 13.94% | GI50 (MALME-3M; [2]): 11.8 µM | Percentage Cell Growth (MALME-3M; single dose 10 µM): 25.27% | GI50 (MDA-MB-435; [2]): 9.7 µM | Percentage Cell Growth (MDA-MB-435; single dose 10 µM): 14.55% | Percentage Cell Growth (CAKI-1; single dose 10 µM): 18.52% | GI50 (CAKI-1; [2]): 10.2 µM | MID b, average sensitivity of all cell line of particular subpanel (Breast cancer subpanel): 10.16 µM | Selectivity, ratio MID a: MID b (Breast cancer subpanel): 1.00 | MID b, average sensitivity of all cell line of particular subpanel (NSCL cancer subpanel): 12.43 µM | Selectivity, ratio MID a: MID b (NSCL cancer subpanel): 0.83 | GI50 (NCI-H322M; [2]): > 50 µM | Percentage Cell Growth (NCI-H322M; single dose 10 µM): 46.12% | GI50 (NCI/ADR-RES; [2]): 13.5 µM | Percentage Cell Growth (NCI/ADR-RES; single dose 10 µM): 17.06% | GI50 (RXF 393; [2]): 5.64 µM | Percentage Cell Growth (RXF 393; single dose 10 µM): −43.14% | activity at 10 µM (HT29; HT-29, 48 h, single dose 10 µM, read-out: Percentage Cell Growth): 3.88% | GI50 (HT29; HT-29, five concentrations, 48 h, SRB, read-out: GI50): 6.7 µM | GI50 (KM12; [2]): 9.35 µM | Percentage Cell Growth (KM12; single dose 10 µM): 10.89% | GI50 (EKVX; [2]): 4.77 µM | Percentage Cell Growth (EKVX; single dose 10 µM): 53.13%

COc1cccc2c1C(=O)c1c(O)c3c(c(O)c1C2=O)C[C@@](O)(C(=O)CO)C[C@@H]3O[C@H]1C[C@H](N)[C@H](O)[C@H](C)O1 [DRB, doxorubicin]
GI50 (786-0): 0.13 µM | GI50 (A549/ATCC): 0.06 µM
